From PubChem BioAssay (NCI)
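These data come from cells grown in 96-well plates and exposed to compound for 48 hours at five concentrations. GI50: concentration for 50% inhibition of growth. Definition used: TGI = concentration required for complete inhibition of growth.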

Experiments:
Experiment in all cases: NCI anticancer screen, dose series, 48 h
SF-295 CNS = test system: SF-295 CNS
SF-268 CNS = test system: SF-268 CNS
EKVX NSCLC = test system: EKVX NSCLC
HCC-2998 colon = test system: HCC-2998 colon
COLO 205 colon = test system: COLO 205 colon
HL-60(TB) leukemia = test system: HL-60(TB) leukemia
NCI-H522 lung = test system: NCI-H522 lung
U251 CNS = test system: U251 CNS
NCI-H23 lung = test system: NCI-H23 lung
UO-31 renal = test system: UO-31 renal
NCI-H460 lung = test system: NCI-H460 lung
RPMI-8226 leukemia = test system: RPMI-8226 leukemia
SNB-19 CNS = test system: SNB-19 CNS

Row | SMILES | TGI (SF-295 CNS) | TGI (SF-268 CNS) | TGI (EKVX NSCLC) | TGI (HCC-2998 colon) | TGI (COLO 205 colon) | TGI (HL-60(TB) leukemia) | TGI (NCI-H522 lung) | TGI (U251 CNS) | TGI (NCI-H23 lung) | TGI (UO-31 renal) | TGI (NCI-H460 lung) | TGI (RPMI-8226 leukemia) | TGI (SNB-19 CNS) | GI50 (SF-295 CNS) | GI50 (SF-268 CNS) | GI50 (NCI-H23 lung) | GI50 (SNB-19 CNS) | GI50 (UO-31 renal)
1 | OCC1O[C@H](O[C@@H]2CCCN3CC(O)C(O)[C@@H]23)C(O)C(O)C1O (stereo partly drawn) | > 100 µM | > 100 µM | > 100 µM | > 100 µM | > 100 µM | > 100 µM | > 100 µM | > 100 µM | > 100 µM | > 100 µM |  |  |  |  |  |  |  | 
2 | Nc1nc(Nc2ccc(Cl)c(Cl)c2)nc2nc[nH]c12 | 35.7 µM | 22.9 µM | 18.8 µM | 27.9 µM | 44.3 µM | 31.9 µM | 29.3 µM | 36.5 µM | 34.9 µM | 21.3 µM | 34 µM | 62.8 µM | 32 µM |  |  |  |  | 
3 | N#C/C(=C\c1ccncc1)c1csc2ccccc12 | > 100 µM | 82.5 µM | > 100 µM | 35.8 µM | 35.9 µM | 35.5 µM | 41.9 µM | 61.9 µM | > 79.8 µM | > 83.2 µM | > 69 µM | 52.3 µM | 69.6 µM |  |  |  |  | 
4 | CN(C)CCNc1ccc2ncn3c4ccccc4c(=O)c1c23 | 13.4 µM | 20.2 µM |  |  | 4.03 µM | > 100 µM | 5.41 µM | 15.8 µM | 14.5 µM | 17.5 µM | 6.86 µM | > 100 µM | 47.5 µM |  |  |  |  | 
5 | CCCCCC(=O)N[C@@H](c1ccco1)[C@@H](O)C(=O)O[C@H]1C[C@@]2(O)[C@@H](OC(=O)c3ccccc3)[C@@H]3[C@]4(OC(C)=O)CO[C@@H]4C[C@H](O)[C@@]3(C)C(=O)[C@H](OC(C)=O)C(=C1C)C2(C)C | 0.0284 µM | > 25 µM | > 25 µM | > 25 µM | 0.00015 µM |  | 0.00228 µM | > 25 µM | > 25 µM | > 25 µM | > 25 µM | 8.08 µM | > 25 µM | 0.0009 µM | 0.0161 µM | 0.000239 µM | 0.00055 µM | 0.187 µM
6 | O=C(Nc1ccc([N+](=O)[O-])cc1)Nn1cnnc1 | 63.4 µM | > 100 µM | > 100 µM | > 100 µM | > 100 µM | > 100 µM | > 100 µM | > 100 µM | 48.8 µM | > 100 µM | > 100 µM | > 100 µM | > 100 µM |  |  |  |  | 
7 | O=C1OC(c2ccccc2)=NC1c1ccccc1 (stereo not drawn) | > 100 µM | > 100 µM | > 100 µM | > 100 µM | > 100 µM | > 100 µM | > 100 µM | > 100 µM | > 100 µM | > 100 µM | > 100 µM | > 100 µM | > 100 µM |  |  |  |  | 
8 | C[N+](C)(CCCCCC[N+](C)(C)CCCN1C(=O)c2cccc3cccc(c23)C1=O)CCCN1C(=O)c2cccc3cccc(c23)C1=O | > 100 µM | > 100 µM | > 100 µM |  | > 100 µM | > 100 µM | > 100 µM | > 100 µM | > 100 µM | > 100 µM | > 100 µM | > 100 µM | > 100 µM |  |  |  |  | 
9 | O=C1C(Cl)N(c2c(Cl)cccc2Cl)C1c1c[nH]c2ccccc12 (stereo not drawn) | > 100 µM | > 100 µM | > 100 µM |  | > 100 µM | > 100 µM | > 100 µM | > 100 µM | > 100 µM | > 100 µM | > 100 µM | > 100 µM | > 100 µM |  |  |  |  | 
10 | CCNC(=O)C(C)C1CCC2(C)C=CC(=O)C(C)=C2C1O (stereo not drawn) | > 100 µM | > 100 µM | > 100 µM | > 100 µM | > 100 µM | > 100 µM | > 100 µM | > 100 µM | > 100 µM | > 100 µM | > 100 µM | > 100 µM | > 100 µM |  |  |  |  | 
11 | CC(C)=CCCC(C)(OC1OC(CO)C(O)C(O)C1O)C1CCC2(C)C1C(O)CC1C3(C)CCC(O)C(C)(C)C3C(OC3OC(CO)C(O)C(O)C3OC3OC(C)C(O)C(O)C3O)CC12C (stereo not drawn) (tested in a mixture with another compound) | > 75 µM | > 75 µM | > 75 µM | > 75 µM | > 75 µM | > 75 µM | > 75 µM | > 75 µM | > 75 µM | > 75 µM | > 7.5 µM | > 75 µM | > 75 µM |  |  |  |  | 
12 | O=NN1C(c2ccccc2)CNC(=O)CC1c1ccccc1 (stereo not drawn) | 98.8 µM | > 100 µM | > 100 µM | > 100 µM | 69.8 µM | > 68.8 µM | 46.8 µM | > 100 µM | 97.9 µM | > 83.6 µM | > 100 µM | > 100 µM | > 93.2 µM |  |  |  |  | 
